Test results published in US8802597B2, “Herbicidal pyrimidines” (E I du Pont de Nemours and Company, priority 2003, dated 2014).

Experiments:
Test in all cases: Test C pre/postemergence
Type in all cases: in vivo
Conditions in all cases: Postemergence
[1] = tested on: giant foxtail (Setaria faberii)
Excerpt: (§1) Seeds or nutlets of plant species selected from bermudagrass (Cynodon dactylon), Surinam grass (Brachiaria decumbens), cocklebur (Xanthium strumarium), corn (Zea mays), crabgrass (Digitaria sanguinalis), woolly cupgrass (Eriochloa villosa), giant foxtail (Setaria faberii), goosegrass (Eleusine indica), johnsongrass (Sorghum halepense), kochia (Kochia scoparia), lambsquarters (Chenopodium album), morningglory (Ipomoea coccinea), eastern black nightshade (Solanum ptycanthum), yellow nutsedge (Cyperus esculentus), pigweed (Amaranthus retroflexus), common ragweed (Ambrosia elatior), soybean (Glycine max), common (oilseed) sunflower (Helianthus annuus), and velvetleaf (Abutilon theophrasti) were planted and treated preemergence with test chemicals formulated in a non-phytotoxic solvent mixture which included a surfactant.
(§2) At the same time, plants selected from these crop and weed species and also winter barley (Hordeum vulgare), blackgrass (Alopecurus myosuroides), canarygrass (Phalaris minor), chickweed (Stellaria media), downy brome (Bromus tectorum), green foxtail (Setaria viridis), Italian ryegrass (Lolium multiflorum), wheat (Triticum aestivum), wild oat (Avena fatua) and windgrass (Apera spica-venti) were treated with postemergence applications of some of the test chemicals formulated in the same manner. Plants ranged in height from 2 to 18 cm (1- to 4-leaf stage) for postemergence treatments. Plant species in the flooded paddy test consisted of rice (Oryza sativa), umbrella sedge (Cyperus difformis), duck salad (Heteranthera limosa) and barnyardgrass (Echinochloa crus-galli) grown to the 2-leaf stage for testing. Treated plants and controls were maintained in a greenhouse for 12 to 14 days, after which time all species were compared to controls and visually evaluated. Plant response ratings, summarized in Table C, are based on a scale of 0 to 100 where 0 is no effect and 100 is complete control. A dash (-) response means no test result.

corn (Zea mays) = tested on: corn (Zea mays)
Excerpt: as §1, §2

kochia (Kochia scoparia) = tested on: kochia (Kochia scoparia)
Excerpt: as §1, §2

[2] = tested on: Surinam grass (Brachiaria decumbens)
Excerpt: as §1, §2

soybean (Glycine max) = tested on: soybean (Glycine max)
Excerpt: as §1, §2

[3] = tested on: cocklebur (Xanthium strumarium)
Excerpt: as §1, §2

[4] = tested on: morningglory (Ipomoea coccinea)
Excerpt: as §1, §2

[5] = tested on: crabgrass (Digitaria sanguinalis)
Excerpt: as §1, §2

[6] = tested on: lambsquarters (Chenopodium album)
Excerpt: as §1, §2

[7] = tested on: johnsongrass (Sorghum halepense)
Excerpt: as §1, §2

[8] = 125 g ai/ha, scale 0 to 100 (0 no effect, 100 complete control)

In the case of `COC(=O)c1nc(-c2ccc(Cl)cc2)nc(N)c1Br` [Compound 83], the “Plant response rating (scale of 0 to 100), Foxtail, Giant” value ([1]; 16 g ai/ha) is reported as 0, the “Plant response rating (scale of 0 to 100), Foxtail, Giant” value ([1]; 31 g ai/ha) is reported as 0 and the “Plant response rating (scale of 0 to 100), Foxtail, Giant” value ([1]; 62 g ai/ha) is reported as 20. For the same molecule, the “Foxtail, Giant plant response rating” value [1, 8] was 40, the “Plant response rating (scale of 0 to 100), Corn” value (corn (Zea mays); 16 g ai/ha) was 5 and the “Plant response rating (scale of 0 to 100), Corn” value (corn (Zea mays); 31 g ai/ha) was 15. For the same molecule, the “Plant response rating (scale of 0 to 100), Corn” value (corn (Zea mays); 62 g ai/ha) was 50, the “Corn plant response rating” value (corn (Zea mays); [8]) was 60 and the “Plant response rating (scale of 0 to 100), Kochia” value (kochia (Kochia scoparia); 16 g ai/ha) was 65. The “Plant response rating (scale of 0 to 100), Kochia” value (kochia (Kochia scoparia); 31 g ai/ha) was 75, the “Plant response rating (scale of 0 to 100), Kochia” value (kochia (Kochia scoparia); 62 g ai/ha) was 75 and the “Kochia plant response rating” value (kochia (Kochia scoparia); [8]) was 90. The “Plant response rating (scale of 0 to 100), Surinam Grass” value ([2]; 16 g ai/ha) was 20, the “Plant response rating (scale of 0 to 100), Surinam Grass” value ([2]; 31 g ai/ha) was 30 and the “Plant response rating (scale of 0 to 100), Surinam Grass” value ([2]; 62 g ai/ha) was 45. For the same molecule, the “Surinam Grass plant response rating” value [2, 8] was 65, the “Plant response rating (scale of 0 to 100), Soybean” value (soybean (Glycine max); 16 g ai/ha) was 85 and the “Plant response rating (scale of 0 to 100), Soybean” value (soybean (Glycine max); 31 g ai/ha) was 90. For the same molecule, the “Plant response rating (scale of 0 to 100), Soybean” value (soybean (Glycine max); 62 g ai/ha) was 100, the “Soybean plant response rating” value (soybean (Glycine max); [8]) was 100 and the “Plant response rating (scale of 0 to 100), Cocklebur” value ([3]; 16 g ai/ha) was 60. For the same molecule, the “Plant response rating (scale of 0 to 100), Cocklebur” value ([3]; 31 g ai/ha) was 70, the “Plant response rating (scale of 0 to 100), Cocklebur” value ([3]; 62 g ai/ha) was 70 and the “Cocklebur plant response rating” value [3, 8] was 100. For the same molecule, the “Plant response rating (scale of 0 to 100), Morningglory” value ([4]; 16 g ai/ha) was 70, the “Plant response rating (scale of 0 to 100), Morningglory” value ([4]; 31 g ai/ha) was 85 and the “Plant response rating (scale of 0 to 100), Morningglory” value ([4]; 62 g ai/ha) was 90. For the same molecule, the “Morningglory plant response rating” value [4, 8] was 90, the “Plant response rating (scale of 0 to 100), Crabgrass” value ([5]; 16 g ai/ha) was 25 and the “Plant response rating (scale of 0 to 100), Crabgrass” value ([5]; 31 g ai/ha) was 45. For the same molecule, the “Plant response rating (scale of 0 to 100), Crabgrass” value ([5]; 62 g ai/ha) was 65, the “Crabgrass plant response rating” value [5, 8] was 75 and the “Plant response rating (scale of 0 to 100), Lambsquarters” value ([6]; 16 g ai/ha) was 90. For the same molecule, the “Plant response rating (scale of 0 to 100), Lambsquarters” value ([6]; 31 g ai/ha) was 95, the “Plant response rating (scale of 0 to 100), Lambsquarters” value ([6]; 62 g ai/ha) was 95 and the “Lambsquarters plant response rating” value [6, 8] was 100. The “Plant response rating (scale of 0 to 100), Johnsongrass” value ([7]; 16 g ai/ha) was 10, the “Plant response rating (scale of 0 to 100), Johnsongrass” value ([7]; 31 g ai/ha) was 55 and the “Plant response rating (scale of 0 to 100), Johnsongrass” value ([7]; 62 g ai/ha) was 55. For the same molecule, the “Johnsongrass plant response rating” value [7, 8] was 70.
